Laboratory results taken from patent US20230073125A1, “PERIODONTAL MICROPATCH AND USES THEREOF” (priority 2019, published 2023).

Experiments:
M1 (and M0) macrophages = assay: Macrophage polarization, transwell, flow cytometry and qPCR; assay type: cell-based, rat; settings: treatment with IL-4; qPCR of markers and cytokines
Experimental: Costar transwell inserts (pore size 1 μm) was used for assessing the effectiveness of the released factor(s) on the polarization of macrophages and differentiation of T cells. Patches containing cytokines (4 experimental groups: no drug, IL-4 alone, TGF-β alone and IL-4/TGF-β) placed in the upper chamber. The bottom chamber contains artificial saliva modified media and 10^5 of either primary monocytes or naïve T cells or both (5×10^4). The isolation of primary monocytes was performed as described. Naïve T cells isolated using EasySep Rat T Cell Isolation Kit (STEMCELL Technologies) according to manufacturer's protocol. The change in macrophage phenotypes tested at different time points (day 1-5) using flow cytometry by checking the surface markers (M1): major histocompatibility complex class II (MHC II), CCR7, CD80 and CD86; M2: CD163 (M2c) and CD206 (M2a)). […] Quantitative PCR (qPCR) was used to determine the gene expression of these inflammatory cytokines and cellular markers (as exemplified in FIG. 11D). […] The expression of Foxp3 was measured by flow cytometry. […]
Costar transwell inserts (pore size 1 μm) were used to assess the effectiveness of released factor(s) on macrophage polarization and T cell differentiation. […] Quantitative PCR (qPCR) was used to determine gene expression of inflammatory cytokines and cellular markers (as exemplified in FIG. 23A-23B). […]

[1] = Cytokine loading and release from microparticles/microneedles in artificial saliva, ELISA; assay type: physicochemical; settings: 37° C., up to four weeks
Excerpt: For high quality periodontal treatment, the periodontal patch should act as an immunomodulator by delivering small molecules drugs and/or bioactive molecules to control infection (e.g., with antibiotics), modulate inflammation (e.g., FIG. 11A) and induce the recovery of alveolar bone. Here we used same method as described in Approach 1 to fabricate microneedles (FIG. 10A). IL-4- or TGF-β-loaded silica-heparin microparticles mixed with polymer (e.g., alginate) solution and cast into the molds to generate the microneedle patches. […] At selected time intervals (every 12 hour), the medium was collected and analyzed for released proteins using ELISA Kits. At the end of release study, the remaining proteins extracted from the particles/needles by dissolving them and the percentage of cumulative released proteins measured according to methods explained before. The released percentage measured based on the ratio of the amount released at each time point to the amount that was initially loaded. […]
The microneedle chemical formulation can be further modified for co-encapsulation of both small molecule antibiotics (encapsulated in PLGA NPs) and cytokines (encapsulated in alginate-heparin microparticles), which was integrated and addressed in Aim 3. […] At selected time intervals (every 12 hours), media was collected and analyzed for released proteins using ELISA. […]

periodontal disease = settings: 40 ng local administration per treatment, rat model; cited from earlier work
naïve CD4+ T-cells = assay: Induced Treg differentiation, Foxp3/CD25 by flow cytometry; assay type: cell-based, rat; settings: soluble (no particles) TGF-β
Experimental: Activation and differentiation of T cells were tested by considering expression of CD25 surface activation marker (FIG. 11C) as well as intracellular expression of the transcription factor Foxp3. […] We also tested the ability of controlling differentiation of naïve T-cells into induced Treg by providing sustained release TGF-β from alginate-based particles. We cultured rigorously naïve CD4+ T-cells with anti-CD3 and anti-CD28 for 4 days in the wells containing the microparticles loaded with TGF-β at different concentrations and compared them to the soluble (no particles) counterparts at identical concentrations. The expression of Foxp3 was measured by flow cytometry. […] T cell activation and differentiation was tested by expression of CD25 surface activation marker and intracellular expression of the transcription factor Foxp3.

Substance	macrophage reprogramming (M1 (and M0) macrophages)	cytokine release from designed platforms [1]	bone regeneration (periodontal disease)	periodontal disease progression (periodontal disease)	Foxp3 expression at very high soluble concentrations (naïve CD4+ T-cells)
interleukin 4 [IL-4]	successful reprograming of M1 (and M0) macrophages toward M2	prolonged release	helps regenerate bone	reduces periodontal disease progression	
transforming growth factor beta [TGF-β]		prolonged release			plateaued and was even slightly suppressed
